Reference: publication PMC4965013, “Open Source Drug Discovery with the Malaria Box Compound Collection for Neglected Diseases and Beyond” (PLoS Pathogens, 2016)

Assays:
[1] = test system: P. falciparum 3D7 trophozoites; test: Metabolomic fingerprint profiling LC-MS; assay type: cell-based, Plasmodium falciparum; parameters: UDP-D-glucose / ADP-D-glucose: unit not given here; settings: for Acetyllysine / N-acetyl-L-ornithine / N-carbamoyl-L-aspartate / NADPH / dAMP / dCMP / dTDP / dTMP / dTTP / dihydroorotate / orotate / DLH / DLS/SDL/SID / PD / PEE / PVNF / 3-phosphoglycerate / ADP-D-glucose / ATP / CDP / D-sedoheptulose-1/7-phosphate / FAD / GMP / NAD+ / NADP+ / Octoluse Bisphosphate / Pyroglutamic acid / UDP-D-glucose / UDP-D-glucuronate / UDP-N-acetyl-glucosamine / UDP / UMP / UTP / a-ketoglutarate / citrate/isocitrate / cytidine / dATP / dGMP/AMP / fumarate / glucose-1/6-phosphate / glycerate / guanine / guanosine / hypoxanthine / indole / inosine / nicotinate / ornithine / phosphoenolpyruvate / pyruvate / ribose-phosphate / sarcosine/alanine / sn-glycerol-3-phosphate / succinate/methylmalonic acid / uridine / xanthosine: S2 Table Metabolomics; for Acetyllysine: metabolite Acetyllysine; for N-acetyl-L-ornithine: metabolite N-acetyl-L-ornithine; for N-carbamoyl-L-aspartate: metabolite N-carbamoyl-L-aspartate; for NADPH: metabolite NADPH; for dAMP: metabolite dAMP; for dCMP: metabolite dCMP; for dTDP: metabolite dTDP; for dTMP: metabolite dTMP; for dTTP: metabolite dTTP; for dihydroorotate: metabolite dihydroorotate; for orotate: metabolite orotate; for DLH: peptide DLH; for DLS/SDL/SID: peptide DLS/SDL/SID; for PD: peptide PD; for PEE: peptide PEE; for PVNF: peptide PVNF; for 3-phosphoglycerate: metabolite 3-phosphoglycerate; for ADP-D-glucose: metabolite ADP-D-glucose; for ATP: metabolite ATP; for CDP: metabolite CDP; for CDP / D-sedoheptulose-1/7-phosphate / GMP / Octoluse Bisphosphate / UDP / UMP / UTP / citrate/isocitrate / dGMP/AMP / fumarate / glucose-1/6-phosphate / glycerate / guanine / guanosine / inosine / pyruvate / sarcosine/alanine / succinate/methylmalonic acid / uridine / xanthosine: change in metabolite level after compound treatment; for D-sedoheptulose-1/7-phosphate: metabolite D-sedoheptulose-1/7-phosphate; for FAD: metabolite FAD; for GMP: metabolite GMP; for NAD+: metabolite NAD+; for NADP+: metabolite NADP+; for Octoluse Bisphosphate: metabolite Octoluse Bisphosphate; for Pyroglutamic acid: metabolite Pyroglutamic acid; for UDP-D-glucose: metabolite UDP-D-glucose; for UDP-D-glucuronate: metabolite UDP-D-glucuronate; for UDP-N-acetyl-glucosamine: metabolite UDP-N-acetyl-glucosamine; for UDP: metabolite UDP; for UMP: metabolite UMP; for UTP: metabolite UTP; for a-ketoglutarate: metabolite a-ketoglutarate; for citrate/isocitrate: metabolite citrate/isocitrate; for cytidine: metabolite cytidine; for dATP: metabolite dATP; for dGMP/AMP: metabolite dGMP/AMP; for fumarate: metabolite fumarate; for glucose-1/6-phosphate: metabolite glucose-1/6-phosphate; for glycerate: metabolite glycerate; for guanine: metabolite guanine; for guanosine: metabolite guanosine; for hypoxanthine: metabolite hypoxanthine; for indole: metabolite indole; for inosine: metabolite inosine; for 2_3-Diphosphoglyceric acid / 4-phosphopantothenate / 6-phospho-D-gluconate / FMN / IMP / Pyrophosphate / Sedoheptoluse bisphosphate / cyclic-AMP / glutathione disulfide / lactate / myo-inositol: metabolite level change after treatment; for nicotinate: metabolite nicotinate; for ornithine: metabolite ornithine; for phosphoenolpyruvate: metabolite phosphoenolpyruvate; for pyruvate: metabolite pyruvate; for ribose-phosphate: metabolite ribose-phosphate; for sarcosine/alanine: metabolite sarcosine/alanine; for sn-glycerol-3-phosphate: metabolite sn-glycerol-3-phosphate; for succinate/methylmalonic acid: metabolite succinate/methylmalonic acid; for uridine: metabolite uridine; for xanthosine: metabolite xanthosine
[2] = test system: P. falciparum; test: EC50 listed in S2 Table Metabolomics (used to set the concentration tested); assay type: cell-based; settings: Plasmodium falciparum; EC50 used for Factor_XEC50 in metabolomics; read-out: EC50_nM

Compound: COc1ccc(C(C)=O)cc1N1C(=O)C2C(C1=O)C1(c3ccccc3)C(=O)C2(c2ccccc2)C(c2ccc(C)cc2)=C1c1ccc(C)cc1 (stereo not drawn) [MMV007695]
- Acetyllysine [1]: -0.2737
- N-acetyl-L-ornithine [1]: -0.4583
- N-carbamoyl-L-aspartate [1]: 0.3458
- NADPH [1]: 1.835
- dAMP [1]: 0.454
- dCMP [1]: -0.0001746
- dTDP [1]: 0.6225
- dTMP [1]: 0.1739
- dTTP [1]: 0.01162
- dihydroorotate [1]: -0.0741
- orotate [1]: 0.786
- DLH [1]: 0.4365
- DLS/SDL/SID [1]: 0.2312
- PD [1]: -1.42
- PEE [1]: 0.3408
- PVNF [1]: 0.2956
- 3-phosphoglycerate [1]: -0.5907
- ADP-D-glucose [1]: 0.2728
- ATP [1]: 0.4735
- CDP [1]: 0.708
- D-sedoheptulose-1/7-phosphate [1]: 1.674
- FAD [1]: 0.07228
- GMP [1]: -0.9101
- NAD+ [1]: 0.2072
- NADP+ [1]: 0.5403
- Octoluse Bisphosphate [1]: -1.5013
- Pyroglutamic acid [1]: 0.5983
- UDP-D-glucose [1]: 0.2909
- UDP-D-glucuronate [1]: 0.7314
- UDP-N-acetyl-glucosamine [1]: 0.05292
- UDP [1]: 0.6476
- UMP [1]: -1.868
- UTP [1]: 0.1535
- a-ketoglutarate [1]: 0.5943
- citrate/isocitrate [1]: 1.421
- cytidine [1]: 0.7161
- dATP [1]: 0.1897
- dGMP/AMP [1]: 0.2576
- fumarate [1]: -0.8988
- glucose-1/6-phosphate [1]: -0.6568
- glycerate [1]: -0.4271
- guanine [1]: 0.5906
- guanosine [1]: -0.9684
- hypoxanthine [1]: 0.7986
- indole [1]: 0.2572
- inosine [1]: -0.5212
- 2_3-Diphosphoglyceric acid [1]: -0.9184
- 4-phosphopantothenate [1]: -0.9898
- 6-phospho-D-gluconate [1]: -0.8607
- FMN [1]: -0.08531
- IMP [1]: -0.684
- Pyrophosphate [1]: -1.54
- Sedoheptoluse bisphosphate [1]: -1.405
- cyclic-AMP [1]: -0.504
- glutathione disulfide [1]: -0.8249
- lactate [1]: -1.404
- myo-inositol [1]: -3.565
- nicotinate [1]: 1.458
- ornithine [1]: -0.113
- phosphoenolpyruvate [1]: -0.01223
- pyruvate [1]: -0.001929
- ribose-phosphate [1]: -0.0001746
- sarcosine/alanine [1]: -1.812
- sn-glycerol-3-phosphate [1]: -1.169
- succinate/methylmalonic acid [1]: 0.009176
- uridine [1]: 0.3917
- xanthosine [1]: 0.304
- EC50 [2]: 0.179 µM

Compound: COc1cc(OC)c(N(C)C(=O)c2cc3c(s2)-c2ccccc2S(=O)(=O)C3)cc1Cl [MMV006427]
- Acetyllysine [1]: -3.0678
- N-acetyl-L-ornithine [1]: -2.077
- N-carbamoyl-L-aspartate [1]: -3.4047
- NADPH [1]: -0.4646
- dAMP [1]: 2.306
- dCMP [1]: 1.395
- dTDP [1]: 3.378
- dTMP [1]: 4.553
- dTTP [1]: 1.85
- dihydroorotate [1]: -2.575
- orotate [1]: 0.4264
- DLH [1]: -5.058
- DLS/SDL/SID [1]: -4.1926
- PD [1]: -1.1837
- PEE [1]: -3.666
- PVNF [1]: -5.242
- 3-phosphoglycerate [1]: 0.1517
- ADP-D-glucose [1]: -0.124
- ATP [1]: -1.807
- CDP [1]: 0.8052
- D-sedoheptulose-1/7-phosphate [1]: -0.2773
- FAD [1]: -1.0601
- GMP [1]: -2.558
- NAD+ [1]: 0.783
- NADP+ [1]: 0.3092
- Octoluse Bisphosphate [1]: -2.061
- Pyroglutamic acid [1]: -0.1068
- UDP-D-glucose [1]: 0.214
- UDP-D-glucuronate [1]: -0.1144
- UDP-N-acetyl-glucosamine [1]: 0.3636
- UDP [1]: 0.3063
- UMP [1]: 0.3348
- UTP [1]: -0.8427
- a-ketoglutarate [1]: -0.411
- citrate/isocitrate [1]: 0.0762
- cytidine [1]: 0.3423
- dATP [1]: -0.2111
- dGMP/AMP [1]: -0.9855
- fumarate [1]: -0.3788
- glucose-1/6-phosphate [1]: -0.5462
- glycerate [1]: -0.8092
- guanine [1]: 0.1326
- guanosine [1]: 0.04127
- hypoxanthine [1]: -0.06662
- indole [1]: -0.3106
- inosine [1]: 0.06183
- 2_3-Diphosphoglyceric acid [1]: -0.9034
- 4-phosphopantothenate [1]: -0.1012
- 6-phospho-D-gluconate [1]: -0.09619
- FMN [1]: 0.1283
- IMP [1]: 0.7504
- Pyrophosphate [1]: -1.05
- Sedoheptoluse bisphosphate [1]: -0.7918
- cyclic-AMP [1]: -0.9224
- glutathione disulfide [1]: -0.1859
- lactate [1]: -1.014
- myo-inositol [1]: -1.304
- nicotinate [1]: 0.5771
- ornithine [1]: 0.02692
- phosphoenolpyruvate [1]: 0.2074
- pyruvate [1]: -1.66
- ribose-phosphate [1]: -0.6233
- sarcosine/alanine [1]: -1.711
- sn-glycerol-3-phosphate [1]: 0.334
- succinate/methylmalonic acid [1]: 0.04426
- uridine [1]: -0.5041
- xanthosine [1]: -1.485
- EC50 [2]: 0.0782 µM

Compound: Cc1cc(Nc2ccc(C)c(Cl)c2)n2nc(C(F)(F)F)nc2n1 [MMV665874]
- Acetyllysine [1]: -0.4022
- N-acetyl-L-ornithine [1]: -0.2526
- N-carbamoyl-L-aspartate [1]: 4.028
- NADPH [1]: 0.1752
- dAMP [1]: -0.05231
- dCMP [1]: -0.05814
- dTDP [1]: -1.343
- dTMP [1]: -1.0853
- dTTP [1]: -1.254
- dihydroorotate [1]: 5.397
- orotate [1]: 0.2167
- DLH [1]: -0.1943
- DLS/SDL/SID [1]: -0.1199
- PD [1]: -0.005549
- PEE [1]: -0.4065
- PVNF [1]: -0.2835
- 3-phosphoglycerate [1]: 0.03547
- ADP-D-glucose [1]: 0.02005
- ATP [1]: 0.1462
- CDP [1]: -0.8722
- D-sedoheptulose-1/7-phosphate [1]: -0.2118
- FAD [1]: -0.01762
- GMP [1]: 0.4662
- NAD+ [1]: -0.1
- NADP+ [1]: -0.1197
- Octoluse Bisphosphate [1]: 0.03302
- Pyroglutamic acid [1]: 0.08116
- UDP-D-glucose [1]: -0.2063
- UDP-D-glucuronate [1]: -0.109
- UDP-N-acetyl-glucosamine [1]: -0.4453
- UDP [1]: -1.835
- UMP [1]: -1.099
- UTP [1]: -1.702
- a-ketoglutarate [1]: -0.1317
- citrate/isocitrate [1]: -0.1582
- cytidine [1]: -0.03725
- dATP [1]: 0.3143
- dGMP/AMP [1]: 0.07446
- fumarate [1]: -0.3892
- glucose-1/6-phosphate [1]: 0.2173
- glycerate [1]: 0.07615
- guanine [1]: 0.251
- guanosine [1]: 0.7775
- hypoxanthine [1]: -0.1073
- indole [1]: -0.01704
- inosine [1]: -0.02522
- 2_3-Diphosphoglyceric acid [1]: 0.1914
- 4-phosphopantothenate [1]: -0.3242
- 6-phospho-D-gluconate [1]: 0.01162
- FMN [1]: -0.4401
- IMP [1]: -0.2175
- Pyrophosphate [1]: 0.07871
- Sedoheptoluse bisphosphate [1]: 0.06707
- cyclic-AMP [1]: -0.1282
- glutathione disulfide [1]: -0.03556
- lactate [1]: -0.043
- myo-inositol [1]: -0.09181
- nicotinate [1]: -0.01808
- ornithine [1]: 0.04606
- phosphoenolpyruvate [1]: 0.07297
- pyruvate [1]: 0.2233
- ribose-phosphate [1]: 0.2644
- sarcosine/alanine [1]: 0.1358
- sn-glycerol-3-phosphate [1]: 0.2659
- succinate/methylmalonic acid [1]: -1.091
- uridine [1]: -0.8568
- xanthosine [1]: -0.03941
- EC50 [2]: 0.00671 µM
